Data taken from patent publication US20260159520A1, “HETEROBIFUNCTIONAL COMPOUNDS AND METHODS OF TREATING DISEASE” (Halda Therapeutics OpCo, Inc., priority 2022, published 2026).

Legend:
CDK9 = molecular target: T1, CDK9 (Homo sapiens, UniProt P50750); assay: KdELECT binding assay, CDK9; conditions: CDK9, Table 7
T1 construct: made in house; host or cells: E. coli BL21-derived host (T7 phage) or HEK-293 ('BEK-293' [sic])
Protocol: Compounds were tested using a KdELECT. Kinase-tagged T7 phage strains were prepared in an E. coli host derived from the BL21 strain. E. coli were grown to log-phase and infected with T7 phage and incubated with shaking at 32° C. until lysis. The lysates were centrifuged and filtered to remove cell debris. The remaining kinases were produced in BEK-293 cells and subsequently tagged with DNA for qPCR detection. Streptavidin-coated magnetic beads were treated with biotinylated small molecule ligands for 30 minutes at room temperature to generate affinity resins for kinase assays. The liganded beads were blocked with excess biotin and washed with blocking buffer (SeaBlock (Pierce), 1% BSA, 0.05% Tween 20, 1 mM DTT) to remove unbound ligand and to reduce non-specific binding. Binding reactions were assembled by combining kinases, liganded affinity beads, and test compounds in 1× binding buffer (20% SeaBlock, 0.17×PBS, 0.05% Tween 20, 6 mM DTT). Test compounds were prepared as 111× stocks in 100% DMSO. Kd values were determined using an 11-point 3-fold compound dilution series with three DMSO control points. All compounds for Kd measurements are distributed by acoustic transfer (non-contact dispensing) in 100% DMSO. The compounds were then diluted directly into the assays such that the final concentration of DMSO was 0.9%. All reactions performed in polypropylene 384-well plate. Each was a final volume of 0.02 mL. The assay plates were incubated at room temperature with shaking for 1 hour and the affinity beads were washed with wash buffer (lx PBS, 0.05% Tween 20). The beads were then re-suspended in elution buffer (lx PBS, 0.05% Tween 20, 0.5 μM nonbiotinylated affinity ligand) and incubated at room temperature with shaking for 30 minutes. The kinase concentration in the eluates was measured by qPCR.

[1] = test system: T-Rex 293 cell line SC cells having increased expression of progesterone receptor isoform B protein; assay: Cellular growth inhibition, T-Rex 293 SC cells with doxycycline (increased progesterone receptor isoform B expression); type: cell-based; conditions: with 10 ng/mL doxycycline (increased progesterone receptor isoform B), 72 hours, CellTiter-Glo 2.0
Protocol: The following types of cells were prepared for this experiment: (i) a T-Rex 293 cell line having increased expression of progesterone receptor isoform B protein due to exposure to doxycycline and (ii) a T-Rex 293 cell line lacking increased expression of progesterone receptor isoform B protein. Ability of the test compounds to inhibit proliferation of the foregoing cell types was evaluated according to the procedures set forth below.
The doxycycline-inducible progesterone receptor isoform B protein expressing cell line was established using the following protocol: T-Rex 293 cells were purchased from Invitrogen (Cat #R71007) and transfected using Lipofectamine 2000 with the wild-type progesterone receptor B protein sequence cloned into the pcDNA4/TO vector. Transfected cells were selected using 400 μg/mL Zeocin (Invitrogen Cat #R25001). Following selection, single clones were raised and maintained in Dulbecco's Modified Eagle Medium (DMEM) supplemented with 10% w/w Tetracycline-free fetal bovine serum (FBS) and 250 μg/mL Zeocin. Clones were analyzed for expression of progesterone receptor isoform B protein in the presence and absence of 10 ng/mL doxycycline (Sigma Cat #D9891), and a single doxycycline-inducible clone (hereinafter “SC”) was selected for use in downstream assays.
The SC cells were seeded on poly-D-lysine coated, black clear-bottom 384-well plates at 2500/well, in 25 μL Phenol Red Free Dulbecco's Modified Eagle Medium (DMEM) supplemented with 10% w/w charcoal-dextran treated fetal bovine serum (FBS) and 1% w/w pen-strep, with or without 10 ng/mL doxycycline. Pen-Strep is a commercially available mixture of penicillin G and streptomycin, which is used in mammalian cell culture media to prevent bacterial contamination. Phenol Red Free Dulbecco's Modified Eagle Medium (DMEM) supplemented with 10% w/w charcoal-dextran treated fetal bovine serum (FBS) and 1% w/w pen-strep, with or without 10 ng/mL doxycycline is herein referred to as Treatment Medium. Following seeding of cells in the plates, the plates were spun at 300×g for 30 seconds, then equilibrated to room temperature for 30 minutes, and then deposited in a humidified tissue culture incubator maintained at 37° C. with 5% CO2.
At 24 hours after seeding of the cells, dilutions of test compound were prepared in DMSO and dissolved in Treatment Medium, to achieve a final DMSO concentration of 0.5% w/w, thereby providing the Test Compound Solution. A 25 μL aliquot of the Test Compound Solution was added to cells in the well plates. An equal volume of a solution containing DMSO and Treatment Medium was used as a negative control. Following treatment of cells with Test Compound Solution or said equal volume of a solution containing DMSO and Treatment Medium, the plates were spun at 300×g for 30 seconds, and then left in an incubator for 72 hours.
At the end of the treatment duration, cell viability was quantified with CellTiter-Glo 2.0 reagent (Promega Cat #G9243). For this purpose, plates were equilibrated to room temperature for 30 minutes, and then 25 μL of CellTiter-Glo 2.0 reagent was added to cells in the plate wells. Plates were then agitated on a shaker for two minutes at 500 rpm and subsequently incubated at room temperature for 10 minutes. Following incubation, the plates were spun at 3000×g for 30 seconds, then sealed with an optical adhesive cover, and luminescence readings were measured with an EnVision Plate Reader (Perkin Elmer).
Data was normalized using zero luminescence for baseline. A four-parameter non-linear regression curve fit was applied to dose-response data in GraphPad Prism data analysis software to determine the half-maximal growth inhibitory concentration (GI50) for each test compound.

T1 sequence (P50750 whole entry): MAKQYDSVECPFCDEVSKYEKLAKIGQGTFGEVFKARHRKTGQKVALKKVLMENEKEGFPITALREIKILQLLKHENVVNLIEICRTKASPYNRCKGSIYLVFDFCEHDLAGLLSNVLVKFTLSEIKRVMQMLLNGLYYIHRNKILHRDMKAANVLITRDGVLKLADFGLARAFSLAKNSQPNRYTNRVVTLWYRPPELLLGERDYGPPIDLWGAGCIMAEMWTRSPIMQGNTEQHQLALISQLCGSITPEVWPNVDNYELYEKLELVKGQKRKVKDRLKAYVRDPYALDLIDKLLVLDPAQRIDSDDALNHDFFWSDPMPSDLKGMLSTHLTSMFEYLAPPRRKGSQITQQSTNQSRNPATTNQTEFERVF

SMILES | Kd (CDK9) | GI50 [1]
CCc1cnn2c(NCc3ccc(OCCN(C)c4ncc(C(=O)N[C@H]5C(C)(C)[C@H](Oc6ccc(C#N)c(Cl)c6)C5(C)C)cn4)nc3)cc(N3CCCC[C@H]3CCO)nc12 [Compound I-1] | 50 to 500 nM | –
CCc1cnn2c(NCc3ccc(OCCOCCOCCOCCOCCN(C)c4ncc(C(=O)N[C@H]5C(C)(C)[C@H](Oc6ccc(C#N)c(Cl)c6)C5(C)C)cn4)nc3)cc(N3CCCC[C@H]3CCO)nc12 [Compound I-3] | 50 to 500 nM | < 500 nM
CCc1cnn2c(NCc3ccc(=O)n(CCOCCOCCOCCOCCOCCOCCN(C)c4ncc(C(=O)N[C@H]5C(C)(C)[C@H](Oc6ccc(C#N)c(Cl)c6)C5(C)C)cn4)c3)cc(N3CCCC[C@H]3CCO)nc12 [Compound I-4, N-((1r,3r)-3-(3-chloro-4-cyanophenoxy)-2,2,4,4-tetramethylcyclobutyl)-2-((20-(5-(((3-ethyl-5-((S)-2-(2-hydroxyethyl)piperidin-1-yl)pyrazolo[1,5-a]pyrimidin-7-yl)amino)methyl)-2-oxopyridin-1(2H)-yl)-3,6,9,12,15,18-hexaoxaicosyl)(methyl)amino)pyrimidine-5-carboxamide] | – | < 500 nM
CCc1cnn2c(NCc3ccc(OCCOCCOCCOCCOCCOCCOCCN(C)c4ncc(C(=O)N[C@H]5C(C)(C)[C@H](Oc6ccc(C#N)c(Cl)c6)C5(C)C)cn4)nc3)cc(N3CCCC[C@H]3CCO)nc12 [Compound I-5] | – | < 500 nM
CCc1cnn2c(NCc3ccc(OCCOC4CCN(c5ncc(C(=O)N[C@H]6C(C)(C)[C@H](Oc7ccc(C#N)c(Cl)c7)C6(C)C)cn5)CC4)nc3)cc(N3CCCC[C@H]3CCO)nc12 [Compound I-7, N-((1r,3r)-3-(3-chloro-4-cyanophenoxy)-2,2,4,4-tetramethylcyclobutyl)-2-(4-(2-((5-(((3-ethyl-5-((S)-2-(2-hydroxyethyl)piperidin-1-yl)pyrazolo[1,5-a]pyrimidin-7-yl)amino)methyl)pyridin-2-yl)oxy)ethoxy)piperidin-1-yl)pyrimidine-5-carboxamide] | 500 to 2500 nM | < 500 nM
CCc1cnn2c(NCc3ccc(OCCOCCOCCOC4CCN(c5ncc(C(=O)N[C@H]6C(C)(C)[C@H](Oc7ccc(C#N)c(Cl)c7)C6(C)C)cn5)CC4)nc3)cc(N3CCCC[C@H]3CCO)nc12 [Compound I-8] | 50 to 500 nM | < 500 nM
CCc1cnn2c(NCc3ccc(OCCOCCOCCOCCOCCOC4CCN(c5ncc(C(=O)N[C@H]6C(C)(C)[C@H](Oc7ccc(C#N)c(Cl)c7)C6(C)C)cn5)CC4)nc3)cc(N3CCCC[C@H]3CCO)nc12 [Compound I-9] | 500 to 2500 nM | –
CC1(C)[C@H](NC(=O)c2cnc(N3CCC(OCCNS(=O)(=O)c4ccc(Nc5ncc(Br)c(Nc6cccc(F)c6C(N)=O)n5)cc4)CC3)nc2)C(C)(C)[C@H]1Oc1ccc(C#N)c(Cl)c1 [Compound I-13, 2-(4-(2-((4-((5-bromo-4-((2-carbamoyl-3-fluorophenyl)amino)pyrimidin-2-yl)amino)phenyl)sulfonamido)ethoxy)piperidin-1-yl)-N-((1 r,3r)-3-(3-chloro-4-cyanophenoxy)-2,2,4,4-tetramethylcyclobutyl)pyrimidine-5-carboxamide] | > 2500 nM | > 3000 nM
CCc1cnn2c(NCc3ccc(OCCCCOCCOC4CCN(c5ncc(C(=O)N[C@H]6C(C)(C)[C@H](Oc7ccc(C#N)c(Cl)c7)C6(C)C)cn5)CC4)nc3)cc(N3CCCC[C@H]3CCO)nc12 [Compound I-34] | 500 to 2500 nM | –
CCc1cnn2c(NCc3ccc(OCCN4CCN(CC5CCN(c6ncc(C(=O)N[C@H]7C(C)(C)[C@H](Oc8ccc(C#N)c(Cl)c8)C7(C)C)cn6)CC5)CC4)nc3)cc(N3CCCC[C@H]3CCO)nc12 [Compound I-41] | 50 to 500 nM | < 500 nM
CCc1cnn2c(NCc3ccc(COCCN4CCN(CC5CCN(c6ncc(C(=O)N[C@H]7C(C)(C)[C@H](Oc8ccc(C#N)c(Cl)c8)C7(C)C)cn6)CC5)CC4)nc3)cc(N3CCCC[C@H]3CCO)nc12 [Compound I-42] | < 50 nM | < 500 nM
CCc1cnn2c(NCc3ccc(OCCOCC4CCN(CC5CCN(c6ncc(C(=O)N[C@H]7C(C)(C)[C@H](Oc8ccc(C#N)c(Cl)c8)C7(C)C)cn6)CC5)CC4)nc3)cc(N3CCCC[C@H]3CCO)nc12 [Compound I-45] | < 50 nM | –
CCc1cnn2c(NCc3ccc(OCCN4CCN(CC5CCN(c6ncc(C(=O)N[C@H]7C(C)(C)[C@H](Oc8ccc(C#N)c(Cl)c8)C7(C)C)cn6)CC5)CC4)nc3)cc(-c3ccccc3)nc12 [Compound I-47, N-((1r,3r)-3-(3-chloro-4-cyanophenoxy)-2,2,4,4-tetramethylcyclobutyl)-2-(4-((4-(2-((5-(((3-ethyl-5-phenylpyrazolo[1,5-a]pyrimidin-7-yl)amino)methyl)pyridin-2-yl)oxy)ethyl)piperazin-1-yl)methyl)piperidin-1-yl)pyrimidine-5-carboxamide] | > 2500 nM | –
CCc1cnn2c(NCc3ccc(OCCCN4CCN(CC5CCN(c6ccc(C(=O)N[C@H]7C(C)(C)[C@H](Oc8ccc(C#N)c(Cl)c8)C7(C)C)cn6)CC5)CC4)nc3)cc(N3CCCC[C@@H]3CCO)nc12 [Compound I-55, N-((1r,3r)-3-(3-chloro-4-cyanophenoxy)-2,2,4,4-tetramethylcyclobutyl)-6-(4-((4-(3-((5-(((3-ethyl-5-((R)-2-(2-hydroxyethyl)piperidin-1-yl)pyrazolo[1,5-a]pyrimidin-7-yl)amino)methyl)pyridin-2-yl)oxy)propyl)piperazin-1-yl)methyl)piperidin-1-yl)nicotinamide] | – | < 500 nM
CCc1cnn2c(NCc3ccc(N4CCC(N5CCN(C6CN(c7ncc(C(=O)N[C@H]8C(C)(C)[C@H](Oc9ccc(C#N)c(Cl)c9)C8(C)C)cn7)C6)CC5)CC4)nc3)cc(N3CCCC[C@H]3CCO)nc12 [Compound I-86] | – | < 500 nM
CCc1cnn2c(NCc3ccc(OCCCN4CCN(CC5CCN(c6ccc(C(=O)N[C@H]7C(C)(C)[C@H](Oc8ccc(C#N)c(Cl)c8)C7(C)C)cc6)CC5)CC4)nc3)cc(N3CCCC[C@@H]3CCO)nc12 [II-1, N-((1r,3r)-3-(3-chloro-4-cyanophenoxy)-2,2,4,4-tetramethylcyclobutyl)-4-(4-((4-(3-((5-(((3-ethyl-5-((R)-2-(2-hydroxyethyl)piperidin-1-yl)pyrazolo[1,5-a]pyrimidin-7-yl)amino)methyl)pyridin-2-yl)oxy)propyl)piperazin-1-yl)methyl)piperidin-1-yl)benzamide] | – | < 500 nM
